Entries after “also recorded” stand apart in the source; their conditions may differ. Read-outs that look alike come from different tables or passages of the source.
Columns and labels:
[1] = phase I pharmacokinetics in blood (dried blood spot, LC-MS/MS, noncompartmental analysis); type: in vivo, human; settings: for Cmax: blood; for AUC(0-t): read-out: AUC0–168
Description: Blood samples for pharmacokinetic analysis were acquired using dried blood-spot technology on days 1 and 22 of cycle 1 at several time points before, during, and after infusion (up to 168 hours after administration). Drug concentrations were determined by a validated method of liquid chromatography and tandem mass spectrometry (limit of quantification 2 ng/mL). Pharmacokinetic parameters were calculated using a noncompartmental analysis and included the maximum observed blood concentration (Cmax), AUC from 0 to infinity, AUC0–168, CL, CL after repeated administrations (CLss), volume of distribution at steady state (Vss), and the half-life associated with the terminal slope (t1/2z).

[2] = test system: Asian patients with solid tumors; assay: phase I dose escalation: dose-limiting toxicities, MTD and recommended dose; type: in vivo
Description: This was an open-label, phase I, multicenter study consisting of a dose-escalation phase (to determine the MTD of SAR) and a dose-expansion phase (to evaluate the antitumor activity of SAR at the RD in patients with MET-amplified tumors, including gastric cancer).
The model was run based on DLTs occurring during the first cycle of treatment.
SAR was administered by weekly intravenous infusion on days 1, 8, 15, and 22 of each 28–day cycle. The starting dose was 260 mg/m^2, and dose increments of 30% were made, to a maximum of 570 mg/m^2. Treatment continued until disease progression, unacceptable toxicity, or consent withdrawal. Patients were screened within 21 days before the first administration and followed for 30 days after the last administration.
A DLT was defined as grade 4 neutropenia for ≥ 7 consecutive days, febrile neutropenia, grade 4 thrombocytopenia or grade 3 thrombocytopenia with bleeding requiring a transfusion, any grade ≥ 3 nonhematologic event not easily managed or corrected by medical intervention, or SAR-related toxicity resulting in two or more missed doses.
The safety population consisted of all patients exposed to SAR, regardless of the amount of treatment administered.

[3] = human, whole blood (dried blood spot), intravenous, 340 mg/m2, 340 mg/m^2, cycle 1 Day 22, N = 3, mean ± SD
[4] = human, whole blood (dried blood spot), intravenous, 440 mg/m2, 440 mg/m^2, cycle 1 Day 1, n = 2, mean
[5] = human, whole blood (dried blood spot), intravenous, 440 mg/m2, 440 mg/m^2, cycle 1 Day 22, N = 3, mean ± SD
[6] = human, whole blood (dried blood spot), intravenous, 570 mg/m2, 570 mg/m^2, cycle 1 Day 1, n = 20, mean ± SD
[7] = human, whole blood (dried blood spot), intravenous, 570 mg/m2, 570 mg/m^2, cycle 1 Day 22, N = 17, mean ± SD

O=C(NCCN1CCOCC1)Nc1nc2ccc(Sc3nnc4ccc(-c5ccc(F)cc5)nn34)cc2s1 [SAR125844]
AUC [1, 3]: 16500 ± 2390 ng·h/mL
Cmax [1, 3]: 4700 ± 976 ng/mL
AUC(0-t) [1, 3]: 16500 ± 2390 ng·h/mL
clearance ([1]; human, whole blood (dried blood spot), intravenous, 340 mg/m2, 340 mg/m^2, cycle 1 Day 22, N = 3, mean ± SD, read-out: CL (converted)): 557 mL/min
Vd ([1]; human, whole blood (dried blood spot), intravenous, 340 mg/m2, 340 mg/m^2, cycle 1 Day 22, N = 3, mean ± SD, read-out: Vss): 291 ± 52.6 L
half-life ([1]; human, whole blood (dried blood spot), intravenous, 340 mg/m2, 340 mg/m^2, cycle 1 Day 22, N = 3, mean ± SD, read-out: t1/2z (converted)): 20.6 ± 4.69 h
Cmax ([1]; human, whole blood (dried blood spot), intravenous, 440 mg/m2, 440 mg/m^2, cycle 1 Day 1, N = 3, mean ± SD): 6390 ± 1010 ng/mL
AUC [1, 4]: 22000 ng·h/mL
AUC(0-t) [1, 4]: 22100 ng·h/mL
clearance ([1]; human, whole blood (dried blood spot), intravenous, 440 mg/m2, 440 mg/m^2, cycle 1 Day 1, n = 2, mean, read-out: CL (converted)): 530 mL/min
Vd ([1]; human, whole blood (dried blood spot), intravenous, 440 mg/m2, 440 mg/m^2, cycle 1 Day 1, n = 2, mean, read-out: Vss): 202 L
half-life ([1]; human, whole blood (dried blood spot), intravenous, 440 mg/m2, 440 mg/m^2, cycle 1 Day 1, n = 2, mean, read-out: t1/2z (converted)): 12.1 h
AUC [1, 5]: 25400 ± 5300 ng·h/mL
Cmax [1, 5]: 5840 ± 1420 ng/mL
AUC(0-t) [1, 5]: 25300 ± 5220 ng·h/mL
clearance ([1]; human, whole blood (dried blood spot), intravenous, 440 mg/m2, 440 mg/m^2, cycle 1 Day 22, N = 3, mean ± SD, read-out: CL (converted)): 503 mL/min
Vd ([1]; human, whole blood (dried blood spot), intravenous, 440 mg/m2, 440 mg/m^2, cycle 1 Day 22, N = 3, mean ± SD, read-out: Vss): 490 ± 366 L
half-life ([1]; human, whole blood (dried blood spot), intravenous, 440 mg/m2, 440 mg/m^2, cycle 1 Day 22, N = 3, mean ± SD, read-out: t1/2z (converted)): 27.5 ± 8.24 h
Cmax ([1]; human, whole blood (dried blood spot), intravenous, 570 mg/m2, 570 mg/m^2, cycle 1 Day 1, N = 21, mean ± SD): 6570 ± 1680 ng/mL
AUC [1, 6]: 36200 ± 11800 ng·h/mL
AUC(0-t) [1, 6]: 36100 ± 11800 ng·h/mL
clearance ([1]; human, whole blood (dried blood spot), intravenous, 570 mg/m2, 570 mg/m^2, cycle 1 Day 1, n = 20, mean ± SD, read-out: CL (converted)): 463 mL/min
Vd ([1]; human, whole blood (dried blood spot), intravenous, 570 mg/m2, 570 mg/m^2, cycle 1 Day 1, n = 20, mean ± SD, read-out: Vss): 241 ± 55.3 L
half-life ([1]; human, whole blood (dried blood spot), intravenous, 570 mg/m2, 570 mg/m^2, cycle 1 Day 1, n = 20, mean ± SD, read-out: t1/2z (converted)): 22.8 ± 9.47 h
AUC [1, 7]: 35100 ± 15000 ng·h/mL
Cmax [1, 7]: 6330 ± 1270 ng/mL
AUC(0-t) [1, 7]: 35100 ± 14900 ng·h/mL
clearance ([1]; human, whole blood (dried blood spot), intravenous, 570 mg/m2, 570 mg/m^2, cycle 1 Day 22, N = 17, mean ± SD, read-out: CL (converted)): 482 mL/min
Vd ([1]; human, whole blood (dried blood spot), intravenous, 570 mg/m2, 570 mg/m^2, cycle 1 Day 22, N = 17, mean ± SD, read-out: Vss): 287 ± 105 L
half-life ([1]; human, whole blood (dried blood spot), intravenous, 570 mg/m2, 570 mg/m^2, cycle 1 Day 22, N = 17, mean ± SD, read-out: t1/2z (converted)): 21.2 ± 4.94 h
half-life ([1]; human, whole blood (dried blood spot), intravenous, 570 mg/m2, at the RD (570 mg/m^2), read-out: elimination half-life (converted)): ~21 h
Vd ([1]; human, whole blood (dried blood spot), intravenous, 570 mg/m2, at the RD (570 mg/m^2), read-out: volume of distribution at steady state): ~253 L
clearance ([1]; qualitative): medium
effect of dose on total body clearance (CL) ([1]; statistical analysis, P = 0.25): no significant effect
effect of dose on CL at steady state (CLs) ([1]; statistical analysis, P = 0.79): no significant effect
recommended dose (RD) ([2]; Asian patients, weekly i.v. infusion): 570 mg/m^2
maximum tolerated dose (MTD) ([2]; dose-escalation cohort, 260–570 mg/m^2 weekly i.v.): not reached
dose-limiting toxicities (DLTs) ([2]; dose-escalation phase, listed as SAR): No dose-limiting toxicities; also recorded: No DLTs
patients with a DLT ([2]; expansion cohort, 570 mg/m^2, of 19 patients, cycle 1, transaminase and creatinine increases): one

Source: article PMC5668067, “Phase I dose-escalation study of the c-Met tyrosine kinase inhibitor SAR125844 in Asian patients with advanced solid tumors, including patients with MET-amplified gastric cancer” (Oncotarget, 2017)
